Data on 17 molecules can be found in ChEMBL document CHEMBL4184253, “Design, synthesis, and structure-activity relationships of new benzofuro[3,2-b]pyridin-7-ols as DNA topoisomerase II inhibitors” (Bioorg Med Chem Lett, 2018).

Assay [1] deals with DNA topoisomerase 2-alpha (Homo sapiens) (UniProt P11388). Nature of the assay: Inhibition of human recombinant topoisomerase-2alpha assessed as inhibition of relaxation of supercoiled pBR322 plasmid DNA at 100 uM measured after 1 hr by ethidium bromide staining based agarose gel electrophoresis relative to control.
DNA topoisomerase 2-alpha (Homo sapiens), sequence (P11388 whole entry): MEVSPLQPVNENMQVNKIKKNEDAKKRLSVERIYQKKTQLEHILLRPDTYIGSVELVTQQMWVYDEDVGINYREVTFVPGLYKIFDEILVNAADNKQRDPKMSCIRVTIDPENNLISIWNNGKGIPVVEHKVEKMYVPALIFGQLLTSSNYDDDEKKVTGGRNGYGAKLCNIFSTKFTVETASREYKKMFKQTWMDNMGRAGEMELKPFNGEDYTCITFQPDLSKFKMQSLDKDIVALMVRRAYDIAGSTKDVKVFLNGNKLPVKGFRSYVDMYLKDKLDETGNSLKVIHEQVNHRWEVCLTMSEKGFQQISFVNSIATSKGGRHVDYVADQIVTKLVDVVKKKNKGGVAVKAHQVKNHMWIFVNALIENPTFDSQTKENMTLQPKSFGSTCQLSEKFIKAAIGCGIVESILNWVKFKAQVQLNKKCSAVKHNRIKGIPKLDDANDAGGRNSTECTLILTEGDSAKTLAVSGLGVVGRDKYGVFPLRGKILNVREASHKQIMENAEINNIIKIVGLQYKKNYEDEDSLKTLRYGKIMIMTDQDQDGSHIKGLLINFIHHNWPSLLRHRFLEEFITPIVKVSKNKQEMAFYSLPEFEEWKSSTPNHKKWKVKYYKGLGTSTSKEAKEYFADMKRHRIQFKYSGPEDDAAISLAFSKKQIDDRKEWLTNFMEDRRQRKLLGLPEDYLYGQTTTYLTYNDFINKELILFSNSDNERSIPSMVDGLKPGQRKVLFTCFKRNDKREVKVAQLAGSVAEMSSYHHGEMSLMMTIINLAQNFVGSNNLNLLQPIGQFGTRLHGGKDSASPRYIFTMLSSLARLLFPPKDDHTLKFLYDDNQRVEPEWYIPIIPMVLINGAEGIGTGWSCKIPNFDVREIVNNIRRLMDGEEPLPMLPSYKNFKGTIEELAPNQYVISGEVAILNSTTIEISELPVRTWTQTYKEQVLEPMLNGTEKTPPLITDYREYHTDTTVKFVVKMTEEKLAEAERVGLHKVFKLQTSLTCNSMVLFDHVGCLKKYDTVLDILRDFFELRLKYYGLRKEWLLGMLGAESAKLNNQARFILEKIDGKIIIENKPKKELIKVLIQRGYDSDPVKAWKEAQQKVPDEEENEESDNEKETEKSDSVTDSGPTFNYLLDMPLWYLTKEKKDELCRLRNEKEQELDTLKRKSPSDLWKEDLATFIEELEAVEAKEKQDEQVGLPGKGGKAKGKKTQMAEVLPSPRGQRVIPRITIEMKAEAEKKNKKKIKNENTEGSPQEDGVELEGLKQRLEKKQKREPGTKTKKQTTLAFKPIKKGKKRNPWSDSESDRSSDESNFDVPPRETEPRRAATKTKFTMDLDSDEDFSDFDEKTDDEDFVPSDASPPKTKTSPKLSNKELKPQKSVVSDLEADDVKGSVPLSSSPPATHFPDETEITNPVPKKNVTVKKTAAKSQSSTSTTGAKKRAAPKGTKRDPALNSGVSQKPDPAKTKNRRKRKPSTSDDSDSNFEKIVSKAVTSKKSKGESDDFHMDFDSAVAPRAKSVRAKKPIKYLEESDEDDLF
For assay [2] the target is unchanged. As to the kind of experiment: Inhibition of human recombinant topoisomerase-2alpha assessed as inhibition of relaxation of supercoiled pBR322 plasmid DNA at 20 uM measured after 1 hr by ethidium bromide staining based agarose gel electrophoresis relative to control.
Assay [3] has as its target T1, DNA topoisomerase 1 (Homo sapiens) (UniProt P11387).
T1 sequence (whole entry): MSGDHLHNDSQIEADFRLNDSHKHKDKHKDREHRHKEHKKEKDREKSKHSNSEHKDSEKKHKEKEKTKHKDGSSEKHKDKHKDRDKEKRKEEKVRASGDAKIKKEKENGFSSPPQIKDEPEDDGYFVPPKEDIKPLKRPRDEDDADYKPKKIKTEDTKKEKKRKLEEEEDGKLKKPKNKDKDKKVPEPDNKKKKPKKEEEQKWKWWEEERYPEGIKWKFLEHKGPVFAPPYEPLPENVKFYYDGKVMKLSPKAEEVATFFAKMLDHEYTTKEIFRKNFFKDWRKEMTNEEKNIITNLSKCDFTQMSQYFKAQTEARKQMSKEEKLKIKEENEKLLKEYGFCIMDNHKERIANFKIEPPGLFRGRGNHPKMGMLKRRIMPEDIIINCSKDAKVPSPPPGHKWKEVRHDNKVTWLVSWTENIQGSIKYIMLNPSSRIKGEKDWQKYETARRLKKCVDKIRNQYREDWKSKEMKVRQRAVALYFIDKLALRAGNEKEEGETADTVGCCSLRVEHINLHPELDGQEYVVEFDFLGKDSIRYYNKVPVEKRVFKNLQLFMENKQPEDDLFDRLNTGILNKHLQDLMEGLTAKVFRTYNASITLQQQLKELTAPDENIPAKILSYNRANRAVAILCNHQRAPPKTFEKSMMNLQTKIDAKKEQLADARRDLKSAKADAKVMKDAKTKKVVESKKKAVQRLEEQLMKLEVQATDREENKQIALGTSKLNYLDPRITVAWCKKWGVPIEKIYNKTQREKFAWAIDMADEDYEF
As to the kind of experiment: Inhibition of human recombinant topoisomerase-1 assessed as inhibition of relaxation of supercoiled pBR322 plasmid DNA at 100 uM measured after 1 hr by ethidium bromide staining based agarose gel electrophoresis relative to control.

In a further assay the test system is HCT-15. As to the kind of experiment: Antiproliferative activity against human HCT15 cells incubated for 72 hrs by CCK8 assay. Conditions: HCT-15, 72 h. The assay is classed as functional, cell-based.
Another assay relates to T47D. Nature of the assay: Antiproliferative activity against human T47D cells incubated for 72 hrs by CCK8 assay. The assay is classed as functional, cell-based.
The test system of another assay is HeLa. As to the kind of experiment: Antiproliferative activity against human HeLa cells incubated for 72 hrs by CCK8 assay. It is filed as functional, cell-based.
Assay [4] concerns the target DNA topoisomerase 2-alpha (Homo sapiens) (UniProt P11388). As to the kind of experiment: Inhibition of human recombinant topoisomerase-2alpha assessed as inhibition of relaxation of supercoiled pBR322 plasmid DNA at 100 uM measured after 1 hr by ethidium bromide staining based agarose gel electrophoresis relative to control etoposide.
For assay [5] the target is unchanged. As to the kind of experiment: Inhibition of human recombinant topoisomerase-2alpha assessed as inhibition of relaxation of supercoiled pBR322 plasmid DNA at 20 uM measured after 1 hr by ethidium bromide staining based agarose gel electrophoresis relative to control etoposide.
Assay [6] concerns the target T1, DNA topoisomerase 1 (Homo sapiens). Nature of the assay: Inhibition of human recombinant topoisomerase-1 assessed as inhibition of relaxation of supercoiled pBR322 plasmid DNA at 20 uM measured after 1 hr by ethidium bromide staining based agarose gel electrophoresis relative to control.

Counter-ions that a name gives are not always drawn. Active and inactive are the calls of the source. The rule behind the calls is not given here. Where only a bound is given, the exact number is not on record here.

`Oc1cccc(-c2cc(-c3cccc(O)c3)c3oc4cc(O)ccc4c3n2)c1`: the inhibition is 100% in assay [1], 74.1% in [2] and 22.4% in assay [3]. In addition, the IC50 was 1.22 µM with HCT-15, 0.59 µM in the assay on T47D and 0.86 µM in the assay on HeLa. The Ratio in assay [4] was determined as 1.62; in assay [5] it was 1.49.
`Oc1ccc2c(c1)oc1c(-c3ccccc3)cc(-c3ccccc3O)nc12`: the inhibition in assay [1] stood at 83.1%; in assay [2], 52.6%; in [3], 18.2%. The half-inhibitory concentration (IC50) came to 1.6 µM with HCT-15, 0.71 µM in the assay on T47D and 4.11 µM in the assay on HeLa. Also, the Ratio in assay [4] stood at 1.08; in assay [5], 1.33.
For `Oc1cccc(-c2cc(-c3ccccc3O)c3oc4cc(O)ccc4c3n2)c1`, the inhibition in assay [1] was 63%; in [2] it was 12%; in assay [3], 33.9%; in [6], 0%. Moreover, the IC50 with HCT-15 stood at 2.5 µM; with T47D it was 0.64 µM; in the assay with HeLa, 3.63 µM. The Ratio in assay [4] was determined as 0.82; in assay [5], 0.31.
On to `COc1cccc2c1C(=O)c1c(O)c3c(c(O)c1C2=O)C[C@@](O)(C(=O)CO)C[C@@H]3O[C@H]1C[C@H](N)[C@H](O)[C@H](C)O1` [DOXORUBICIN HYDROCHLORIDE], for which the IC50 turned out to be 0.51 µM in the assay with HCT-15 and 1.5 µM with HeLa.
Regarding `Oc1cccc(-c2cc(-c3ccccc3O)nc3c2oc2cc(O)ccc23)c1`, the inhibition turned out to be 99.1% in assay [1], 76% in [2] and 25.6% in assay [3]. Also, the IC50 in the assay on HCT-15 stood at 6.96 µM; in the assay on T47D, 1.26 µM; in the assay with HeLa it was 3.39 µM. Moreover, the Ratio in assay [4] is 1.6; in assay [5], 1.53.
For the molecule `Oc1ccc(-c2cc(-c3ccccc3)c3oc4cc(O)ccc4c3n2)cc1`, the inhibition in assay [1] was 78.4%; in [2], 72.2%; in [3] it was 43.9%; in assay [6] it was 0%. For the same molecule, the IC50 in the assay on HCT-15 is more than 50 µM; in the assay with T47D, 5.3 µM; with HeLa, more than 50 µM. The figures for the Ratio in [4] and in assay [5] were 1.02 and 1.83, respectively.
`Oc1ccc2c(c1)oc1c(-c3ccccc3O)cc(-c3ccccc3)nc12`: the inhibition in [1] was 52.5%; in assay [2] it was 19.1%; in assay [3], 14.2%. Further, the results for the IC50 in the assay on HCT-15, in the assay with T47D and with HeLa were 5.74 µM, 0.74 µM and 6.93 µM, respectively. Moreover, the Ratio in assay [4] was determined as 0.69; in assay [5] it was 0.48.
As for `Oc1ccc(-c2cc(-c3cccc(O)c3)nc3c2oc2cc(O)ccc23)cc1`, the inhibition is 58.4% in [1], 45.1% in [2], 71.7% in assay [3] and 60.9% in assay [6]. For the same molecule, the IC50 in the assay with HCT-15 was found to be 23.9 µM; in the assay on T47D, 5.25 µM; in the assay with HeLa, 29.1 µM. For the same molecule, the Ratio in assay [4] came to 0.94; in assay [5], 0.91.
For the molecule `Oc1cccc(-c2cc(-c3ccccc3)c3oc4cc(O)ccc4c3n2)c1`, the inhibition worked out at 46.3% in assay [1], 32.5% in assay [2] and 15.9% in [3]. Further, the figures for the half-maximal inhibitory concentration (IC50) in the assay on HCT-15, in the assay on T47D and in the assay with HeLa were more than 50 µM, 2.79 µM and more than 50 µM, respectively. The Ratio is 0.6 in assay [4] and 0.82 in [5].
Turning to `Oc1ccc(-c2cc(-c3ccccc3O)nc3c2oc2cc(O)ccc23)cc1`, the inhibition turned out to be 100% in assay [1], 70.8% in [2], 39.9% in assay [3] and 0% in assay [6]. The IC50 with HCT-15 came out at 9.34 µM; in the assay with T47D, 1.97 µM; in the assay on HeLa it was 3.62 µM. In addition, the results for the Ratio in [4] and in [5] were 1.62 and 1.42, respectively.
Regarding `Oc1ccc2c(c1)oc1c(-c3ccccc3)cc(-c3ccccc3)nc12`, the results for the inhibition in assay [1], in assay [3] and in [6] were 18.3%, 30.8% and 0%, respectively. For the same molecule, the IC50 in the assay with HCT-15, with T47D and in the assay with HeLa was more than 50 µM each time.
Consider `Oc1ccc(-c2cc(-c3cccc(O)c3)c3oc4cc(O)ccc4c3n2)cc1`, for which the inhibition came out at 66.1% in assay [1], 55.1% in assay [2], 66.3% in assay [3] and 38.1% in assay [6]. The IC50 was 3.73 µM in the assay on HCT-15, 0.19 µM with T47D and 2.16 µM in the assay on HeLa. The Ratio in [4] came to 1.07; in [5], 1.11.
For the molecule `Oc1ccc2c(c1)oc1c(-c3ccccc3O)cc(-c3ccccc3O)nc12`, the inhibition in [1] worked out at 46%; in assay [2] it was 38%; in [3], 30.1%; in [6] it was 0%. The results for the IC50 in the assay with HCT-15, in the assay with T47D and with HeLa were more than 50 µM, 1.03 µM and more than 50 µM, respectively. Further, the Ratio in assay [4] was 0.6; in assay [5], 0.96.
`Oc1ccc(-c2cc(-c3ccccc3O)c3oc4cc(O)ccc4c3n2)cc1`: the values for the inhibition in [1], in assay [2] and in assay [3] were 87.3%, 29% and 3.3%, respectively. Moreover, the half-maximal inhibitory concentration (IC50) was found to be 1.26 µM in the assay on HCT-15, 0.62 µM with T47D and 2.86 µM in the assay on HeLa. The Ratio in assay [4] was found to be 1.12; in [5], 0.73.
Turning to `Oc1ccc(-c2cc(-c3ccccc3)nc3c2oc2cc(O)ccc23)cc1`, the inhibition came out at 0.4% in assay [1], 30.3% in assay [3] and 0% in assay [6]. The IC50 in the assay on HCT-15, in the assay with T47D and in the assay on HeLa was more than 50 µM each time. For the same molecule, the inhibition entry in assay [4] is “inactive”.
Regarding `Oc1ccc(-c2cc(-c3ccc(O)cc3)c3oc4cc(O)ccc4c3n2)cc1`, the inhibition in [1] came to 71%; in [2] it was 65.9%; in assay [3], 33.8%; in [6], 18.6%. The IC50 was found to be 4.21 µM in the assay with HCT-15, 0.17 µM in the assay on T47D and 3.32 µM in the assay with HeLa. Besides, the Ratio was determined as 1.15 in [4] and 1.33 in assay [5].
Consider `Oc1cccc(-c2cc(-c3ccccc3)nc3c2oc2cc(O)ccc23)c1`, for which the results for the inhibition in [1], in [2] and in [3] were 98%, 41.9% and 27.4%, respectively. Also, the figures for the IC50 in the assay on HCT-15, in the assay on T47D and with HeLa were 4.11 µM, 0.34 µM and 3.27 µM, respectively. Also, the Ratio worked out at 1.58 in assay [4] and 0.84 in assay [5].
